Assays:
[1] = tested on: herpes simplex virus type 1 (HSV-1) strain F; assay: Virus inactivating reaction with HSV-1 in sample solution, remaining infectious virus by plaque assay; type: cell-based
[2] = tested on: influenza virus A/Aichi (H3N2); assay: Virus inactivating reaction with influenza virus A in sample solution, remaining infectious virus by plaque assay; type: cell-based; settings: for Relative Inactivating Efficiency: relative to 0.01% CAE alone
[3] = 0.1 mM catechin compound alone, pH 4.0, 30° C. 5 min
[4] = 0.1 mM catechin compound, 0 M arginine, pH 4.0, relative to 0.1 mM of the same compound alone
[5] = 0.1 mM catechin compound, 0.2 M arginine, pH 4.0, relative to 0.1 mM of the same compound alone
[6] = 0.5 mM catechin compound, 0 M arginine, pH 4.0, relative to 0.1 mM of the same compound alone

For `O=C(O[C@@H]1Cc2c(O)cc(O)cc2O[C@@H]1c1ccc(O)c(O)c1)c1cc(O)c(O)c(O)c1` [(−)epicatechin gallate], the “remaining viral titer, % of the viral amount before inactivation” value [1, 3] was 0.04%, the “Relative Inactivating Efficiency” value [1, 4] was 1 times and the “Relative Inactivating Efficiency” value [1, 5] was 59 times. The “Relative Inactivating Efficiency” value [1, 6] was 27 times.
In the case of `N=C(N)NCCC[C@H](N)C(=O)O` [Arginine, arginine], the “Relative Inactivating Efficiency” value ([1]; 0% CAE, 0.058 M arginine alone, pH 4.0, 10 mM sodium citrate, relative to 0.005% CAE alone) is reported as 0.03 times and the “Relative Inactivating Efficiency” value ([1]; pH 4) is reported as 1075 times.
`O=C(/C=C/c1ccc(O)c(O)c1)OCCc1ccccc1` [Caffeic acid phenethyl ester, caffeic acid phenethyl ester] was tested, and the “remaining viral titer, % of that obtained before inactivation” value ([1]; 0.01 mM caffeic acid phenethyl ester alone, pH 4.0, 30° C. 5 min) was 0.3%, the “Relative Inactivating Efficiency” value ([1]; 0.01 mM caffeic acid phenethyl ester, 0 M arginine, pH 4.0, relative to 0.01 mM compound alone) was 1 times and the “Relative Inactivating Efficiency” value ([1]; 0.01 mM caffeic acid phenethyl ester, 0.2 M arginine, pH 4.0, relative to 0.01 mM compound alone) was 8 times. For the same compound, the “Relative Inactivating Efficiency” value ([1]; 0.05 mM caffeic acid phenethyl ester, 0 M arginine, pH 4.0, relative to 0.01 mM compound alone) was 1 times, the “Relative Inactivating Efficiency” value ([1]; 0.05 mM caffeic acid phenethyl ester, 0.2 M arginine, pH 4.0, relative to 0.01 mM compound alone) was 122 times and the “Relative Inactivating Efficiency” value ([1]; 0.1 mM caffeic acid phenethyl ester, 0 M arginine, pH 4.0, relative to 0.01 mM compound alone) was 1 times. For the same compound, the “Relative Inactivating Efficiency” value ([1]; 0.1 mM caffeic acid phenethyl ester, 0.2 M arginine, pH 4.0, relative to 0.01 mM compound alone) was greater than 243 times and the “Relative Inactivating Efficiency” value ([1]; 0.1 mM caffeic acid phenethyl ester, 0.2 M arginine, pH 4.0, relative to 0.01 mM compound alone, listed as caffeic acid phenethyl ester) was “more than 243 times”.
`O=C(O)/C=C/c1ccc(O)c(O)c1` [Caffeic acid, caffeic acid] was tested, and the “viral titer after inactivation, % of that before inactivation” value ([1]; 0.1 mM caffeic acid alone, pH 4.0 (Comparative Example 2)) was 0.13%, the “viral titer after inactivation, % of the viral amount before inactivation” value ([1]; 0.1 mM caffeic acid alone, pH 4.0, 30° C. 5 min (Example 1)) was 0.3% and the “Relative Inactivating Efficiency” value ([1]; 0.1 mM caffeic acid, 0 M NaCl, pH 4.0, 20 mM sodium acetate, relative to 0.1 mM caffeic acid alone) was 1 times. For the same compound, the “Relative Inactivating Efficiency” value ([1]; 0.1 mM caffeic acid, 0 M arginine, pH 4.0, 30° C. 5 min, relative to 0.1 mM caffeic acid alone) was 1 times, the “Relative Inactivating Efficiency” value ([1]; 0.1 mM caffeic acid, 0.2 M NaCl, pH 4.0, relative to 0.1 mM caffeic acid alone) was 0.010 times and the “Relative Inactivating Efficiency” value ([1]; 0.1 mM caffeic acid, 0.2 M NaCl, pH 4.0, relative to 0.1 mM caffeic acid alone, listed as caffeic acid) was 0.01 times. For the same compound, the “Relative Inactivating Efficiency” value ([1]; 0.1 mM caffeic acid, 0.2 M arginine, pH 4.0, 30° C. 5 min, relative to 0.1 mM caffeic acid alone) was 1.5 times, the “Relative Inactivating Efficiency” value ([1]; 0.5 mM caffeic acid, 0 M arginine, pH 4.0, 30° C. 5 min, relative to 0.1 mM caffeic acid alone) was 1.3 times and the “Relative Inactivating Efficiency” value ([1]; 0.5 mM caffeic acid, 0.2 M NaCl, pH 4.0, relative to 0.1 mM caffeic acid alone) was 0.009 times. The “Relative Inactivating Efficiency” value ([1]; 0.5 mM caffeic acid, 0.2 M arginine, pH 4.0, 30° C. 5 min, relative to 0.1 mM caffeic acid alone) was 3.3 times, the “Relative Inactivating Efficiency” value ([1]; 1 mM caffeic acid, 0 M arginine, pH 4.0, 30° C. 5 min, relative to 0.1 mM caffeic acid alone) was 1.4 times and the “Relative Inactivating Efficiency” value ([1]; 1.0 mM caffeic acid, 0.2 M NaCl, pH 4.0, relative to 0.1 mM caffeic acid alone) was 0.007 times. The “Relative Inactivating Efficiency” value ([1]; 1 mM caffeic acid, 0.2 M arginine, pH 4.0, 30° C. 5 min, relative to 0.1 mM caffeic acid alone) was 7.8 times.
In the case of `O=C1O[C@H]([C@@H](O)CO)C(=O)C1=O` [Dehydroascorbic acid, dehydroascorbic acid], the “remaining viral titer, % of the viral amount before inactivation” value ([1]; 0.1 mM dehydroascorbic acid alone, pH 4.0, 30° C. 5 min) is reported as 7.3%, the “Relative Inactivating Efficiency” value ([1]; 0.1 mM dehydroascorbic acid, 0 M arginine, pH 4.0, relative to 0.1 mM compound alone) is reported as 1 times and the “Relative Inactivating Efficiency” value ([1]; 0.1 mM dehydroascorbic acid, 0.2 M arginine, pH 4.0, relative to 0.1 mM compound alone) is reported as 248 times. The “Relative Inactivating Efficiency” value ([1]; 1 mM dehydroascorbic acid, 0 M arginine, pH 4.0, relative to 0.1 mM compound alone) was 1 times, the “Relative Inactivating Efficiency” value ([1]; 1 mM dehydroascorbic acid, 0.2 M arginine, pH 4.0, relative to 0.1 mM compound alone) was 1440 times and the “Relative Inactivating Efficiency” value ([1]; 10 mM dehydroascorbic acid, 0 M arginine, pH 4.0, relative to 0.1 mM compound alone) was 1 times. For the same compound, the “Relative Inactivating Efficiency” value ([1]; 10 mM dehydroascorbic acid, 0.2 M arginine, pH 4.0, relative to 0.1 mM compound alone) was greater than 7200 times and the “Relative Inactivating Efficiency” value ([1]; 10 mM dehydroascorbic acid, 0.2 M arginine, pH 4.0, relative to 0.1 mM compound alone, listed as dehydroascorbic acid) was “more than 7200 times”.
For `[Cl-].[Na+]` [NaCl, reference compound], the “Relative Inactivating Efficiency” value ([1]; pH 4) was 0.011 times.
With (−)epigallocatechin gallate the “remaining viral titer, % of the viral amount before inactivation” value [1, 3] was 0.02%, the “Relative Inactivating Efficiency” value [1, 4] was 1 times and the “Relative Inactivating Efficiency” value [1, 5] was 12 times. The “Relative Inactivating Efficiency” value [1, 6] was 268 times.
In the case of cocoyl arginine ethyl ester [CAE], the “viral titer after inactivation, % of that before inactivation” value ([1]; 0.005% CAE alone, pH 4.0, 30° C. 5 min) is reported as 0.4%, the “Relative Inactivating Efficiency” value ([1]; 0.005% CAE, 0 M arginine, pH 4.0, 10 mM sodium citrate, relative to 0.005% CAE alone) is reported as 1 times and the “Relative Inactivating Efficiency” value ([1]; 0.005% CAE, 0.058 M arginine, pH 4.0, relative to 0.005% CAE alone) is reported as 1.13 times. The “Relative Inactivating Efficiency” value ([1]; 0.005% CAE, 0.115 M arginine, pH 4.0, relative to 0.005% CAE alone) was 20 times, the “viral titer after inactivation, % of that before inactivation” value ([2]; 0.01% CAE alone, pH 4.8, 30° C. 5 min) was 3.1% and the “Relative Inactivating Efficiency” value ([2]; 0.01% CAE, 0 M arginine, pH 4.8, 10 mM sodium citrate) was 1 Times. For the same compound, the “Relative Inactivating Efficiency” value ([2]; 0.01% CAE, 0.115 M arginine, pH 4.8) was 82 Times and the “Relative Inactivating Efficiency” value ([2]; 0.02% CAE, 0.115 M arginine, pH 4.8) was 63 Times.
